From PubChem BioAssay AID1845194 (Molecular Pharmacology Branch, DTP, NCI, 2023)
Several values for one entry are separate records, joined by “and”; a condition that tells them apart may be missing. Equal entries are not always repeated.

Tested on: 287954-098-R-J1 tumor spheroid viability
Experiment: Anticancer human tumor 287954-098-R-J1 patient-derived Ewing sarcoma cell line growth inhibition
Conditions: spheroids with HUVEC and MSC; for viability, T/C: stronger effect = lower value
How it was run: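 Complex spheroids of malignant cells with endothelial cells and mesenchymal stem cells; agents alone or combined, from near clinical Cmax (or 10 microM if unknown) down in half-log steps, 0.25% DMSO final.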

[1] = curve of first compound, second compound 0.003 µM
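Note: spheroids exposed to compound for 7 days before viability readout.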
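Throughout, for viability, T/C: luminescent signal taken as surrogate of viable cell content; 100% = DMSO vehicle control viability and lower means growth inhibition.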

`[2H]c1nc(C)nc([2H])c1-c1cc(NC[C@@H](C)c2cccc3c(C(=O)NC)ccnc23)ncn1` + COc1cc2c(cc1O)CCNC21CSC2c3c(OC(C)=O)c(C)c4c(c3C(COC1=O)N1C(O)C3Cc5cc(C)c(OC)c(O)c5C(C21)N3C)OCO4 was tested, and the IC50 (curve of first compound, second compound 30 pM) was over 10 µM, the IC50 (curve of first compound, second compound 94.9 pM) was over 10 µM and the IC50 (curve of first compound, second compound 0.0003 µM) was over 10 µM. The IC50 (curve of first compound, second compound 0.000949 µM) was under 0.0316 µM, the IC50 [1] was under 0.0316 µM and the viability, T/C (second compound 30 pM, first compound 0.0316 µM) was 109%. It also gave a viability, T/C (second compound 30 pM, first compound 0.1 µM) of 104%, a viability, T/C (second compound 30 pM, first compound 0.316 µM) of 104% and a viability, T/C (second compound 30 pM, first compound 1 µM) of 108%. The viability, T/C (second compound 30 pM, first compound 3.16 µM) was 109%, the viability, T/C (second compound 30 pM, first compound 10 µM) was 98.6% and the viability, T/C (second compound 94.9 pM, first compound 0.0316 µM) was 106%. The viability, T/C (second compound 94.9 pM, first compound 0.1 µM) was 114%, the viability, T/C (second compound 94.9 pM, first compound 0.316 µM) was 107% and the viability, T/C (second compound 94.9 pM, first compound 1 µM) was 110%. It also gave a viability, T/C (second compound 94.9 pM, first compound 3.16 µM) of 101%, a viability, T/C (second compound 94.9 pM, first compound 10 µM) of 96.7% and a viability, T/C (second compound 0.0003 µM, first compound 0.0316 µM) of 105%. It also gave a viability, T/C (second compound 0.0003 µM, first compound 0.1 µM) of 108%, a viability, T/C (second compound 0.0003 µM, first compound 0.316 µM) of 112% and a viability, T/C (second compound 0.0003 µM, first compound 1 µM) of 107%. It also gave a viability, T/C (second compound 0.0003 µM, first compound 3.16 µM) of 95.4%, a viability, T/C (second compound 0.0003 µM, first compound 10 µM) of 89.2% and a viability, T/C (second compound 0.000949 µM, first compound 0.0316 µM) of 0.38%. The viability, T/C (second compound 0.000949 µM, first compound 0.1 µM) was 0.51%, the viability, T/C (second compound 0.000949 µM, first compound 0.316 µM) was 0.33% and the viability, T/C (second compound 0.000949 µM, first compound 1 µM) was 0.67%. For the same compound, the viability, T/C (second compound 0.000949 µM, first compound 3.16 µM) was 0.26%, the viability, T/C (second compound 0.000949 µM, first compound 10 µM) was 0.31% and the viability, T/C (second compound 0.003 µM, first compound 0.0316 µM) was 0.21%. The viability, T/C (second compound 0.003 µM, first compound 0.1 µM) was 0.24%, the viability, T/C (second compound 0.003 µM, first compound 0.316 µM) was 0.17% and the viability, T/C (second compound 0.003 µM, first compound 1 µM) was 0.15%. It also gave a viability, T/C (second compound 0.003 µM, first compound 3.16 µM) of 0.14% and a viability, T/C (second compound 0.003 µM, first compound 10 µM) of 0.25%.

With `CC(C)n1c(=O)n(C)c2cnc3cc(F)c(-c4ccc(OCCCN5CCCCC5)nc4)cc3c21` the viability, T/C (compound 0.0316 µM) was 110% (2×) and 102%, the viability, T/C (compound 0.1 µM) was 102% (2×) and 101% and the viability, T/C (compound 0.316 µM) was 110% and 98.5% and 105%. For the same compound, the viability, T/C (compound 1 µM) was 102% and 110% and 112%, the viability, T/C (compound 3.16 µM) was 108% and 107% (2×) and the viability, T/C (compound 10 µM) was 11% and 86.6% and 25.5%. For the same compound, the IC50 (curve of compound) was 6.24 µM and > 10 µM and 7.03 µM.

Work on `O=C(c1cc(Cc2n[nH]c(=O)c3ccccc23)ccc1F)N1CCN(C(=O)C2CC2)CC1` + CC[C@@]1(O)C(=O)OCc2c1cc1n(c2=O)Cc2cc3c(CN(C)C)c(O)ccc3nc2-1 yielded an IC50 [1] of 5.24 µM, an IC50 (curve of first compound, second compound 0.00949 µM) of 3.84 µM and an IC50 (curve of first compound, second compound 0.03 µM) of under 0.0949 µM. It also gave an IC50 (curve of first compound, second compound 0.0949 µM) of under 0.0949 µM, an IC50 (curve of first compound, second compound 0.3 µM) of under 0.0949 µM and a viability, T/C (second compound 0.003 µM, first compound 0.0949 µM) of 93.7%. For the same compound, the viability, T/C (second compound 0.003 µM, first compound 0.3 µM) was 96.7%, the viability, T/C (second compound 0.003 µM, first compound 0.949 µM) was 96.2% and the viability, T/C (second compound 0.003 µM, first compound 3 µM) was 93.9%. The viability, T/C (second compound 0.003 µM, first compound 9.49 µM) was 3.33%, the viability, T/C (second compound 0.003 µM, first compound 30 µM) was 1.93% and the viability, T/C (second compound 0.00949 µM, first compound 0.0949 µM) was 92.9%. The viability, T/C (second compound 0.00949 µM, first compound 0.3 µM) was 95.3%, the viability, T/C (second compound 0.00949 µM, first compound 0.949 µM) was 82.9% and the viability, T/C (second compound 0.00949 µM, first compound 3 µM) was 63.2%. It also gave a viability, T/C (second compound 0.00949 µM, first compound 9.49 µM) of 1.84%, a viability, T/C (second compound 0.00949 µM, first compound 30 µM) of 1.78% and a viability, T/C (second compound 0.03 µM, first compound 0.0949 µM) of 2.21%. For the same compound, the viability, T/C (second compound 0.03 µM, first compound 0.3 µM) was 2.14%, the viability, T/C (second compound 0.03 µM, first compound 0.949 µM) was 2.31% and the viability, T/C (second compound 0.03 µM, first compound 3 µM) was 2.28%. The viability, T/C (second compound 0.03 µM, first compound 9.49 µM) was 1.82%, the viability, T/C (second compound 0.03 µM, first compound 30 µM) was 1.46% and the viability, T/C (second compound 0.0949 µM, first compound 0.0949 µM) was 2.17%. For the same compound, the viability, T/C (second compound 0.0949 µM, first compound 0.3 µM) was 1.78%, the viability, T/C (second compound 0.0949 µM, first compound 0.949 µM) was 1.87% and the viability, T/C (second compound 0.0949 µM, first compound 3 µM) was 1.93%. For the same compound, the viability, T/C (second compound 0.0949 µM, first compound 9.49 µM) was 1.76%, the viability, T/C (second compound 0.0949 µM, first compound 30 µM) was 1.56% and the viability, T/C (second compound 0.3 µM, first compound 0.0949 µM) was 1.94%. For the same compound, the viability, T/C (second compound 0.3 µM, first compound 0.3 µM) was 1.89%, the viability, T/C (second compound 0.3 µM, first compound 0.949 µM) was 1.84% and the viability, T/C (second compound 0.3 µM, first compound 3 µM) was 1.71%. It also gave a viability, T/C (second compound 0.3 µM, first compound 9.49 µM) of 1.55% and a viability, T/C (second compound 0.3 µM, first compound 30 µM) of 1.28%.
